Test system: H2170 cells
Assay: Drug treatment response of lung cancer cell line H2170 (IC50 concentration level of Table 1)
Format: cell-based
Conditions: Homo sapiens, NCI-H2170; LUSC cell line H2170; concentration level annotated IC50* in Table 1; 24 hours treatment; read-out: IC50 (half-maximal inhibitory concentration of drug)
Method: Morphological profiling is emerging as a promising technique in drug screening; however, the presence of batch effects poses a significant challenge. In this context, the efficacy of the CytoMAD approach is evaluated using label-free drug response assays conducted on LUSC (H2170) cells treated with docetaxel, afatinib, and gemcitabine at various concentrations across two distinct batches. This comprises 18 distinct drug treatment conditions, encompassing five concentration levels and one negative control. During the CytoMAD training process, only batch information and drug types are provided, withholding specific drug concentration data. This allows for the evaluation of the model's self-supervised capability to capture morphological changes across concentrations.
Comparative analysis of phenotypic distributions across different drug treatments (representing different colored violins) showcases preserved patterns before and after the implementation of CytoMAD, confirming its capacity to retain cellular information. To further verify the cellular phenotypic preservation capacity of CytoMAD model, treatment response experiment is conducted with lung cancer cell line H2170. In this experiment, H2170 are treated with drugs of different mechanism of action (MoA) (i.e. Docetaxel as microtubule stabilizing agent, Afatinib as tyrosine kinase inhibitor in targeted therapy and Gemcitabine as antimetabolite), each with 5 concentration levels and a negative control with dimethyl sulfoxide (DMSO) for 24 hours as listed in Table 1. They are imaged using multi-ATOM for single-cell BF and QPI images on 6 days, forming 2 batches with ~100,000 cells per drug. Basically, this dataset consists of 2 batches of data, with each batch containing 3 different drug treatments and each treatment comprising 6 different concentration conditions.

| Structure (SMILES) | IC50 [nM] |
| --- | --- |
| CN(C)C/C=C/C(=O)Nc1cc2c(Nc3ccc(F)c(Cl)c3)ncnc2cc1O[C@H]1CCOC1 [Afatinib] | 19 |
| CC(=O)O[C@@]12CO[C@@H]1C[C@H](O)[C@@]1(C)C(=O)[C@H](O)C3=C(C)[C@@H](OC(=O)[C@H](O)[C@@H](NC(=O)OC(C)(C)C)c4ccccc4)C[C@@](O)([C@@H](OC(=O)c4ccccc4)[C@H]21)C3(C)C [Docetaxel] | 3.76 |
| Nc1ccn([C@@H]2O[C@H](CO)[C@@H](O)C2(F)F)c(=O)n1 [Gemcitabine] | 7.51 |

Source: patent publication US12694522B2, “Systems and methods of correcting batch effect in biological images” (The University of Hong Kong, priority 2022, dated 2026)
